From article PMC4685012 (Bioorganic & medicinal chemistry, 2015)

System: Vero cells
Assay: Cell viability
Format: cell-based, monkey
Conditions: Primates, 72 h, read-out: Anti-proliferative activity IC50, Vero

Q: Which IC50 does the source give for `O=C(CCCCCCC(=O)Nc1ccccc1)NO` [SAHA, suberoylanilide hydroxamic acid, reference compound] here?
A: The IC50 was 1.03 ± 0.09 µM.
